Test [1] deals with T1, Melatonin receptor type 1B (Homo sapiens, UniProt P49286).
T1 sequence (P49286 whole entry): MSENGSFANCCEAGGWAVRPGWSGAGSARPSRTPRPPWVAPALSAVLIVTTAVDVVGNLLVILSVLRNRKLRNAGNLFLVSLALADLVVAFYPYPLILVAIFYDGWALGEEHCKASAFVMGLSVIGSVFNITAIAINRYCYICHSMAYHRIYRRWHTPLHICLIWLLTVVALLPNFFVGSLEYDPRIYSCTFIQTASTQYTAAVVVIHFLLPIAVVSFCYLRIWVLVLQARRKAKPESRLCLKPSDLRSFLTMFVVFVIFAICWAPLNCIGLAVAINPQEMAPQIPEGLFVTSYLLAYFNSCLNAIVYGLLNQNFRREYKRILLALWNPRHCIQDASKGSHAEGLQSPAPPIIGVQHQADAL
Put plainly: Displacement of 2[125I]iodomelatonin from human recombinant MT2 receptor expressed in NIH3T3 cells. The test is classed as cell-based.

For test [2], the target named is Melatonin receptor type 1A (Homo sapiens, UniProt P48039). Put plainly: Displacement of 2[125I]iodomelatonin from human recombinant MT1 receptor expressed in NIH3T3 cells. The test is classed as cell-based.
The target of test [3] is T2, Melatonin receptor type 1C (Xenopus laevis, UniProt P49219).
T2 sequence (P49219 whole entry): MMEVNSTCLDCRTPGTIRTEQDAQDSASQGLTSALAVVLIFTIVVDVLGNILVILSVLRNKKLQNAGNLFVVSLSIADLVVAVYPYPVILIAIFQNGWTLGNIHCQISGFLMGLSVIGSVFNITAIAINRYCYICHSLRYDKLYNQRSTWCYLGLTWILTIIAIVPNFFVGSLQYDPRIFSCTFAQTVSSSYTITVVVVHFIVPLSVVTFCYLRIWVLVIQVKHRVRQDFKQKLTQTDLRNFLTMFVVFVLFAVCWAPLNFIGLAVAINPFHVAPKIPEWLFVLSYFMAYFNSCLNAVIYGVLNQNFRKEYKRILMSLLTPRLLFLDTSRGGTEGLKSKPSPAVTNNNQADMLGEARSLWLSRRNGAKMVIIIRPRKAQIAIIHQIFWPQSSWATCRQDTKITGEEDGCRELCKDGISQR
Put plainly: Effect on pigment aggregation in Xenopus laevis melanophores. The test is classed as functional.

The target in test [4] is T3, Melatonin receptor type 1C (Xenopus laevis) (UniProt P49219).
T3 sequence (whole entry): T2 sequence (P49219 whole entry)
Put plainly: Effect on pigment aggregation in Xenopus laevis melanophores at 10 uM. The test is classed as functional.

These results are taken from ChEMBL document CHEMBL1148025, “7-Substituted-melatonin and 7-substituted-1-methylmelatonin analogues: effect of substituents on potency and binding affinity” (Bioorg Med Chem, 2007).

The source made the active and inactive calls. The rule behind the calls is not given here.

Sequence of Melatonin receptor type 1A (P48039 whole entry): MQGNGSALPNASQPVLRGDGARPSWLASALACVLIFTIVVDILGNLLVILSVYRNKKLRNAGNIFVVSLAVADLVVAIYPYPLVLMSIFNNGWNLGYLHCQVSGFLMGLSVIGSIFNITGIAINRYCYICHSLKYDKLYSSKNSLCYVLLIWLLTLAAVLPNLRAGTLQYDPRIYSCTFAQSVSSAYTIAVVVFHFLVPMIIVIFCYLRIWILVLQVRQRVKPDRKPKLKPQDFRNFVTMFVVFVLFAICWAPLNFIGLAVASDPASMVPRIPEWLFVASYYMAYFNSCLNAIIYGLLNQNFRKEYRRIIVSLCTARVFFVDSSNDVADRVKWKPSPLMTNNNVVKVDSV

The term Ki denotes the equilibrium dissociation constant of an inhibitor or competing ligand from its target. As usually defined, the EC50 is the concentration needed to bring the measured effect to its halfway point. Higher therefore signals weaker potency. On to `COc1cc(Br)c2[nH]cc(CCNC(C)=O)c2c1`, for which the inhibition constant (Ki) was 0.676 nM in test [1] and 3.55 nM in test [2]. In addition, in test [3], the EC50 was 3.31 nM.
Turning to `COc1cc(Br)c2c(c1)c(CCNC(C)=O)cn2C`, the Ki is 1.32 nM in test [1] and 10.5 nM in test [2]. In addition, the EC50 in test [3] was 24.5 nM.
Taken in the same sequence, the figures for `CCCC(=O)NCCc1cn(C)c2c(C)cc(OC)cc12` were 1.35 nM, 19.5 nM and 16.6 nM.
For `CCCC(=O)NCCc1c[nH]c2c(-c3ccccc3)cc(OC)cc12`, in that order: 871 nM, 955 nM and 45.7 nM.
Taken in the same sequence, the figures for `CCC(=O)NCCc1c[nH]c2c(-c3ccccc3)cc(OC)cc12` were 617 nM, 617 nM and 155 nM.
With `CCC(=O)NCCc1cn(C)c2c(C)cc(OC)cc12`, the inhibitory constant (Ki) in test [1] was 2.63 nM; in test [2], 15.8 nM. The compound further showed a concentration giving a half-maximal response (EC50) in test [3] of 15.8 nM.
`CCCC(=O)NCCc1c[nH]c2c(C)cc(OC)cc12`: the Ki in test [1] was 0.676 nM; in test [2], 2.88 nM. In test [3], this compound gave a concentration for a half-maximal effect (EC50) of 12.6 nM.
Regarding `CCCC(=O)NCCc1cn(C)c2c(-c3ccccc3)cc(OC)cc12`, the Ki is 851 nM in test [1] and 5370 nM in test [2]. Further, the result in test [4] was inactive.
In the case of `CCC(=O)NCCc1cn(C)c2c(Br)cc(OC)cc12`, the inhibition constant Ki in test [1] was 2.29 nM; in test [2], 14.1 nM. The EC50 in test [3] was 64.6 nM.
For `COc1cc(C)c2c(c1)c(CCNC(C)=O)cn2C`, in that order: 1.55 nM, 8.71 nM and 9.77 nM.
`COc1ccc2[nH]cc(CCNC(C)=O)c2c1` [MELATONIN] showed an EC50 in test [3] of 0.0794 nM.
Turning to `CCC(=O)NCCc1cn(C)c2c(-c3ccccc3)cc(OC)cc12`, the Ki in test [1] is 676 nM; in test [2], 5890 nM. Further, the outcome in test [4] was inactive.
`CCC(=O)NCCc1c[nH]c2c(C)cc(OC)cc12`: the values for the Ki in test [1] and in test [2] were 1.1 nM and 1.78 nM, respectively. This compound showed a half-maximal effective concentration (EC50) in test [3] of 31.6 nM.
Taken in the same sequence, the figures for `COc1cc(C)c2[nH]cc(CCNC(C)=O)c2c1` were 1.74 nM, 2.69 nM and 45.7 nM.
In the case of `CCC(=O)NCCc1c[nH]c2c(Br)cc(OC)cc12`, the Ki in test [1] is 0.537 nM; in test [2], 4.17 nM. This compound showed a half-maximal effective concentration (EC50) in test [3] of 11.5 nM.
For `COc1cc(-c2ccccc2)c2c(c1)c(CCNC(C)=O)cn2C`, in that order: 457 nM, 1260 nM and 339 nM.
For `COc1cc(-c2ccccc2)c2[nH]cc(CCNC(C)=O)c2c1`, in that order: 3020 nM, 12900 nM and 120 nM.
Taken in the same sequence, the figures for `CCCC(=O)NCCc1c[nH]c2c(Br)cc(OC)cc12` were 0.355 nM, 5.13 nM and 3.47 nM.
Regarding `CCCC(=O)NCCc1cn(C)c2c(Br)cc(OC)cc12`, the inhibition constant Ki was 2.14 nM in test [1] and 33.1 nM in test [2]. In test [3], the 50% effective concentration (EC50) is 52.5 nM.
